Assay results as given in patent US20050032844A1, “Methods for regulating nicotine metabolism” (Nicogen, Inc., priority 1996, published 2005).
Where “and” joins values, the source holds several entries; their conditions need not be identical. Equal entries are not always repeated. Entries after “also recorded” stand apart in the source; their conditions may differ. Structures can show the parent of a compound that is named as a salt. Where two headings read alike, the source gives them in different places.

Experiments:
in vitro = settings: human, human liver microsomes
Protocol: The reaction was started by adding NADPH.
Ethyl acetate (3 mls) was added for extraction purposes.
Data Analysis. […] [formula]

[1] = smokers infused with 2 μg/kg/min×30 minutes
CYP2D6 [2] = molecular target: T1, CYP2D6 (Homo sapiens, UniProt P10635); settings: human liver microsomes, Wu, 1993; cited from earlier work
T1 sequence (P10635 whole entry): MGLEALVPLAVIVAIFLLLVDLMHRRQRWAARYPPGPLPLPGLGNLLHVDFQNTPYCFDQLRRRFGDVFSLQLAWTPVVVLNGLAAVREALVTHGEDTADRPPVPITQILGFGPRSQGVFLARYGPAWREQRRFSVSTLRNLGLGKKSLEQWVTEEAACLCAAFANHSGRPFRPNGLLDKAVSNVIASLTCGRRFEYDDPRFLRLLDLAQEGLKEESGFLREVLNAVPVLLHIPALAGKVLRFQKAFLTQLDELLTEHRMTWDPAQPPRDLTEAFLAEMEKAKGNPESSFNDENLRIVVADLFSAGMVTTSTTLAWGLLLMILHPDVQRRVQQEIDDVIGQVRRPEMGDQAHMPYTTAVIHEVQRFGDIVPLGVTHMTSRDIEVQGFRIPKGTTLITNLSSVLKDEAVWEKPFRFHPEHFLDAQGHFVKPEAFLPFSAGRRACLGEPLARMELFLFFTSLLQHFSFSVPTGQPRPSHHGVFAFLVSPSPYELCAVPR

CYP2A6 [3] = molecular target: T2, CYP2A6 (Homo sapiens, UniProt P11509); assay: biochemical
T2 sequence (P11509 1-494): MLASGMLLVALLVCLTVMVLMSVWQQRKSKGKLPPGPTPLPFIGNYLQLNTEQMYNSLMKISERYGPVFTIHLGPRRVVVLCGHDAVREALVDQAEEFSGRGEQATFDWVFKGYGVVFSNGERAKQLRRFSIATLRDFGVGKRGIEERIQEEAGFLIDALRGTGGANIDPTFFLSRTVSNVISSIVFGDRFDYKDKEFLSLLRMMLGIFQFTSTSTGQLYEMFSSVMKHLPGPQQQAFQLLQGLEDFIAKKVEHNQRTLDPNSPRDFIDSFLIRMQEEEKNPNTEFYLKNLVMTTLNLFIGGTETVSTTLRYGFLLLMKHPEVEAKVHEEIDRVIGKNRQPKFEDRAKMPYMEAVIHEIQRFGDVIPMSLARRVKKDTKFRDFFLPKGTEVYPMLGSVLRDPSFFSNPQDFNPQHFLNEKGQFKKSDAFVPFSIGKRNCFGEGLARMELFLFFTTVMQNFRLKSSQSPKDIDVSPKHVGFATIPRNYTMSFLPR
Protocol: Coumarin, 7-methylcoumarin, 7-methoxycoumarin and 7-ethoxycoumarin, at 10 and 100 μM concentrations, were incubated with 50 μM nicotine in K27 human liver microsomes. Furthermore, nicotine at 10, 30 and 50 μM concentrations was incubated using K27 liver microsomes in the presence of 0, 1, 2 and 5 μM concentrations of coumarin.
Microsomes were removed from −70° C. freezer and thawed on ice. […] The reaction was stopped by adding 100 μl to 20% Na2CO3 (pH 11.4).

[4] = system: nicotine to cotinine metabolism by human liver microsomes; assay: Chemical inhibition studies of nicotine to cotinine metabolism in 30 human liver microsomes and K27 microsomes; assay type: biochemical; settings: for rank order of potency in inhibiting cotinine formation: 10 and 100 μM inhibitor, 50 μM nicotine, K27 liver microsomes; for mean inhibition of cotinine formation (mean±SD): 150 μM inhibitor (each), 100 μM (S)-nicotine, 30 human liver microsomes
Protocol: Chemical inhibition studies. […] To maximize inhibition, and reduce the loss due to its own metabolism, a concentration of 150 μM was chosen for each specific inhibitor. […] This concentration was chosen to maximize the contributions of each cytochrome P450 involved in nicotine metabolism, since each enzyme would likely have varying affinities for nicotine. […] High and low concentrations ([…]) of coumarin, 7methylcoumarin, 7-methoxycoumarin, and 7-ethoxycoumarin were incubated with 50 μM nicotine in K27 human liver microsomes.

[5] = in vivo; cited from earlier work
[6] = in humans; cited from earlier work
CYP2A6 [7] = molecular target: T2, CYP2A6; assay: Clinical study of methoxsalen pre-treatment before subcutaneous nicotine in dependent smokers; assay type: in vivo; design: 200 μl human liver microsomes (0.5 mg/ml); from tissue; host or cells: human liver microsomes (donor livers K12, K26, K27, K28)
Protocol: Frequent blood samples were drawn over 6 hours for measurement of nicotine and cotinine concentrations in plasma and measures of nicotine effects (e.g., heart rate; blood pressure; symptoms and urges and desires to smoke).
Each subject abstained from tobacco, food, beverages (other than water), and any inconsistently used drugs from midnight before each study day but continued to take any regularly scheduled drugs allowed by the protocol (e.g., oral contraceptives, daily vitamins). Before baseline measures were taken, a breath CO sample (Ecolyzer) was taken to assess compliance with the smoking abstinence (<10 ppm expected). The subsequent daily schedule is summarized here. All measurements are with respect to a time zero at 8 AM, at which time the first of three hourly nicotine injections were given. Nicotine was injected at 0, +1, and +2 hours.
Baseline physiologic and subjective measures were taken at −30 minutes, +30 minutes, and hourly thereafter until +5.5 hours, approximately coinciding with the expected peak plasma nicotine concentrations after each injection. Blood samples were taken at least hourly, more often around the expected peaks after the first and third injections, as described below.
Sterile nicotine bitartrate was obtained from Sigma Chemical. […] Nicotine injections of 31 μg/kg (expressed as the base) in sterile saline were used. […] The solutions were passed through a viral filter to remove any remote risk of viral or bacterial contamination.
Using an indwelling venous catheter, 8 ml blood samples were drawn every hour from +0 to +6 hours, and additional blood samples were taken at 15, 25, and 40 minutes after the first and third nicotine injections to characterize the kinetics around the expected time of the peak concentration, 25 minutes from injection. Samples that could not be immediately centrifuged for extraction of plasma were stored on ice for at most one hour before centrifugation.
Plasma (nicotine, cotinine) and urinary nicotine and cotinine were measured using an HPLC ion exchange column assay, using an electrochemical detector for nicotine and a UV detector for other compounds. The sensitivity of the nicotine assay was <1 ng/ml and that of the cotinine was <5 ng/ml. Conjugates in urine were determined after hydrolysis with beta-glucuronidase.

CYP2A6 [8] = assay: Antisense knockdown of CYP2A6 protein in h2A6 lymphoblast cells (Western blot); assay type: cell-based, human
Protocol: (§1) In order to test the feasiblility of using antisense oligodeoxynucleotides (ASO) for the reduction of the CYP2A6 enzyme we designed 4 ASO to four different parts of the human CYP2A6 gene and mRNA sequence. The ability to decrease CYP2A6 protein was tested in 2 different human cell lines. The first was a human lymphoblast cell line (h2A6) with a plasmid expression system containing the human CYP2A6 cDNA which is commercially available from Gentest Corp (Woburn, Mass.) and the second was a human hepatic cell line which expresses CYP2A6 (HepG2).
The h2A6 P450 cells were grown to 3×10^6 cells, the media removed and 5 μg ASO and 20 μg/ml lipofectin was added in 1 ml of 5% horse serum supplemented media. The cells were grown for 24 hr when a further 4 mls of complete media (10% horse serum) was added and the cells were grown for an additional 48 hr. Each cell sample was then washed 3 times with phosphate buffered saline, pelleted and frozen. […] These studies were then repeated using the addition of missense oligodeoxynucleotides (MSO) controls for this sequence. The MSO controls have 2 nucleotides switched at the 5 and 3 prime end.

CYP2A6 [9] = assay: Antisense knockdown of CYP2A6 protein in HepG2 cells; assay type: cell-based, human; settings: 2 μg ASO, relative to control untreated and MSO#23 treated cells
Protocol: as §1
The human hepatic HepG2 cells, which express CYP2A6, were grown and aliquoted at 1.0×10^5 cells and grown for 48 hrs in 2 mls complete media (10% fetal calf serum). After 48 hr, 2 μg ASO oligos and 15 μg/ml lipofectin was added in 1 ml 5% FCS media and grown for 24 hr. Cells then trypsinized and washed for Western blots or fixed with 4% paraformaldehyde for Immunocytochemistry.

CYP2D6 [10] = molecular target: T1, CYP2D6; assay: in vitro; settings: pH 7.4
[11] = system: nicotine to cotinine metabolism by K20 human liver microsomes
[12] = system: nicotine to cotinine metabolism by K20 human liver microsomes; assay: Quinidine and coumarin inhibition of cotinine formation in K20 human liver microsomes
[13] = seven smokers, methoxsalen vs placebo

Compound: CN1CCC[C@H]1c1cccnc1 [nicotine, (S)-nicotine]
- Km at 45 min (in vitro; pH 7.4, apparent Km, formation of cotinine (mean±SD), 30 human liver microsomes): 66.7 ± 31.8 µM
- Km at 45 min (in vitro; pH 7.4, mean Km, nicotine to cotinine (mean±SD), 30 human livers): 66.6 ± 31.8 µM
- urine concentration of NIC [1]: > 80 ng/mL
- inhibition of dextromethorphan metabolism by CYP2D6 (CYP2D6 [2]): did not inhibit

Compound: O=C1C[C@@H](c2ccc(O)cc2)Oc2cc(O)cc(O)c21 [naringenin]
- Ki (CYP2A6 [3]): 4.3 µM

Compound: COc1ccc2ccc(=O)oc2c1 [7-methoxycoumarin]
- rank order of potency in inhibiting cotinine formation [4]: coumarin>7-methoxycoumarin>7-methylcoumarin>7-ethoxycoumarin

Compound: CCOc1ccc2ccc(=O)oc2c1 [7-ethoxycoumarin]
- rank order of potency in inhibiting cotinine formation [4]: coumarin>7-methoxycoumarin>7-methylcoumarin>7-ethoxycoumarin

Compound: Cc1ccccc1C(OCCN(C)C)c1ccccc1 (stereo not drawn) [orphenadrine]
- estimated half-life [5]: about 14 h

Compound: COc1c2occc2cc2ccc(=O)oc12 [methoxsalen, 9-Methoxy-7H-furol[3,2-g][1]benzopyran-7-one]
- half-life [6]: about 1 hour
- change in nicotine concentrations (CYP2A6 [7]; plasma, seven subjects, FIG. 25): large changes
- desire to smoke and urge to smoke (CYP2A6 [7]; [13]): significant decreased desire to smoke and urge to smoke
- expectation that a cigarette would be pleasant (CYP2A6 [7]; [13]): significant decrease
- subjective and physiologic effects accompanying increased plasma nicotine (CYP2A6 [7]; [13]): significant increase in nausea, anxiousness, difficulty concentrating, systolic blood pressure

Compound: ASO#23: antisense oligodeoxynucleotide, CYP2A6 mRNA 333-353, exon 2 3 prime end: CCATAGCCTTTGAAGACCCAG (DNA, backbone and methylation of C not given here)
- CYP2A6 immunoreactivity, first test of 4 ASO (CYP2A6 [8]; 5 μg ASO, Western blot): effective at removing the CYP2A6 immunoreactivity
- amount of CYP2A6, repeat with MSO controls (CYP2A6 [8]; relative to untreated control cells and MSO#23-treated cells): effectively deceased the amount of CYP2A6
- CYP2A6 protein (CYP2A6 [9]): profound decreases in CYP2A6 protein

Compound: Cc1ccc2ccc(=O)oc2c1 [7-methylcoumarin]
- rank order of potency in inhibiting cotinine formation [4]: coumarin>7-methoxycoumarin>7-methylcoumarin>7-ethoxycoumarin

Compound: O=c1ccc2ccccc2o1 [coumarin]
- mean inhibition of cotinine formation (mean±SD) [4]: over 80%
- mean inhibition of cotinine formation (mean±SD) ([4]; listed as Coumarin): 84%±11% and 84±11%
- rank order of potency in inhibiting cotinine formation [4]: strongest inhibitory effect; also recorded: coumarin>7-methoxycoumarin>7-methylcoumarin>7-ethoxycoumarin
- nature of inhibition of nicotine metabolism ([4]; Cornish-Bowden plots): competitive
- Ki ([4]; K27 human liver microsomes, n=3, Dixon plot, read-out: apparent Ki, inhibition of nicotine metabolism): ~2 µM
- Ki ([4]; ex vivo in human liver microsomes, read-out: Ki, inhibition of NIC metabolism to COT): 1.5 µM

Compound: COc1ccc2c(c1)[C@]13CCCC[C@@H]1[C@H](C2)N(C)CC3 [dextromethorphan, Dextromethorphan hydrobromide]
- Km at 30 min (CYP2D6 [10]): 5.79 ± 2.01 µM

Compound: CCN(CC)C(=S)S [diethyldithiocarbamic acid]
- Ki (CYP2A6 [3]): 14.5 µM

Compound: C=C[C@H]1C[N@@]2CC[C@H]1C[C@@H]2[C@@H](O)c1ccnc2ccc(OC)cc12 [quinidine]
- inhibition [11]: ~20% and 25%
- inhibition of cotinine formation ([12]; 0.1 μM inhibitor): no inhibition
- inhibition of cotinine formation ([12]; 1.0 μM inhibitor): no inhibition
- inhibition of cotinine formation ([12]; 10 μM inhibitor): 8%

Compound: CO[C@H]1C[C@H](O[C@H]2[C@H](C)[C@@H](O[C@@H]3O[C@H](C)C[C@H](N(C)C)[C@H]3OC(C)=O)[C@@H](C)C[C@@]3(CO3)C(=O)[C@H](C)[C@@H](OC(C)=O)[C@@H](C)[C@@H](C)OC(=O)[C@@H]2C)O[C@@H](C)[C@@H]1OC(C)=O [troleandomycin]
- mean inhibition of cotinine formation (mean±SD) [4]: 3%
